Key:
[1] = test system: membrane testosterone receptors in LNCaP cells; assay: Displacement binding of [3H]testosterone on LNCaP cell membranes; parameters: species or system human; settings: 5 nM [3H]testosterone, competitor 10^-12-10^-6 M
Experimental: (§1) Cells, cultured in 150 cm^2 flasks without serum, were washed twice with phosphate-buffered saline (PBS), removed by scraping and centrifuged at 1500 rpm. Pelleted cells were homogenized by sonication in 50 mM Tris-HCl buffer pH 7.4 containing freshly added protease inhibitors (10 μg/ml PMSF and 1 μg/ml aprotinin). Unbroken cells were removed by centrifugation at 2500 g for 15 min. Membranes were obtained by centrifugation at 45,000 g for 1 hour, and washed once by the same buffer. Protein concentration was measured by the method of Bradford.
(§2) Saturation binding experiments were performed in a final volume of 0.1 ml, containing cell membranes at a final protein concentration of 2 mg/ml and at least 6 different concentrations of [^3H]testosterone (ranging 2-50 nM) without (total binding) or with (non-specific binding) a 100-fold molar excess of unlabelled androgen (DHT). […] In both types of binding experiments, after an overnight incubation at 4° C., bound radioactivity was separated by filtration under reduced pressure through GF/B filters previously soaked in 0.5% polyethylenimine (PEI) in water and rinsed three times with ice-cold Tris-HCl buffer. Filters were mixed with 4 ml scintillation cocktail and the bound radioactivity was counted in a scintillation counter (Tricarb, Series 4000, Packard) with 60% efficiency for Tritium. […]

[2] = test system: prostate cancer LNCaP cells; assay: Cell number by tetrazolium salt assay; assay type: cell-based, human; settings: 24 hours
Experimental: The human prostate cancer LNCaP cell line, originally isolated from a lymph node metastasis of prostate adenocarcinoma, was purchased from DSMZ (Braunschweig, Germany). Cells were cultured in RPMI 1640 medium supplemented with 10% heat inactivated fetal bovine serum (FBS) at 37° C. in a humidified atmosphere of 5% CO2 in air. They were subcultured once a week and incubated in serum-free medium for 24 h before any experiment. All culture media were purchased from Gibco BRL (Life Technologies, Paisley, UK).
Cell number was assayed using the tetrazolium salt assay. Cells were incubated for 3 h at 37° C. with the tetrazolium salt (3-(4,5 dimethylthiazol-2-yl)-2,5 diphenyl tetrazolium bromide, Sigma, St Louis, Mo.). Living cells reduced the dye to purple formazan seen as dark blue crystals. At the end of the incubation period they were dissolved with propanol-1 and the absorbance was measure at 575 nm, within one hour.
In view of the above results, we incubated prostate cancer LNCaP cells with testosterone-BSA alone (10^−7 M) or together with Taxol® (10^−8 M) for 24 hours. […] In addition, a potentiation of the action of Taxol® by ˜7% was also found. […]

[3] = test system: actin cytoskeleton of LNCaP human prostate cancer cells; assay: Determination of monomeric and polymerized actin; assay type: cell-based; settings: 10^-7 M, 10 min
Experimental: For measurements of the monomeric (Triton soluble) and polymerized (Triton insoluble) actin, LNCaP cells were incubated for 10 min with or without DHT or testosterone-BSA (10^−7 M). Then, 500 μl of Triton-extraction buffer (0.3% TritonX-100, 5 mM Tris, pH 7.4, 2 mM EGTA, 300 mM sucrose, 2 μM phalloidin, 1 mM PMSF, 10 μg/ml leupeptin, 20 μg/ml aprotinin, 1 mM sodium orthovanadate, and 50 mM NaF) were added, and the mixture was incubated for 5 minutes on ice. After removing the buffer, soluble proteins were precipitated with equal volumes of 6% PCA. The Triton-insoluble fraction remaining on the plate was precipitated with 1 ml of 3% PCA. Equal volumes of each fraction were subjected to SDS-polyacrylamide gel electrophoresis (SDS-PAGE). The resulting protein-bands were transferred onto nitrocellulose membrane, and the membrane was blocked with 5% nonfat dry milk in TBS-T (20 mM Tris pH 7.6, 137 mM NaCl, 0.05% Tween-20) for 1 h at room temperature. Antibody solutions (in TBS-T) were added for 1 h at room temperature [monoclonal mouse anti-actin first antibody (Amersham-Pharmacia, Bukinghamshire, UK) and second horseradish peroxidase-coupled antibody (Chemicon, Temecula, Calif.)]. Blots were developed using the ECL system (Amersham-Pharmacia, Bukinghamshire, UK) and the band intensities were quantified by PC-based image analysis (Image Analysis Inc., Ontario, Canada). […]

[4] = test system: LNCaP cells; assay: Confocal laser microscopy of membrane binding on LNCaP cells; assay type: cell-based, human; settings: 30 min incubation
Experimental: LNCaP cells were allowed to grow on poly-L-lysine coated glass coverslips for at least 48 hours before culture medium was replaced with serum free medium. After a 24-hour period, cells were washed twice with PBS and incubated with Testosterone-BSA-FITC for 30 min in the presence or in the absence of DHT. As a negative control BSA-FITC was used. Cells were then washed twice with PBS and fixed with 2% PFA in PBS for 30 min. Coverslips were mounted on to slides using a 1:1 (v/v) mixture of glycerol and Vestashield (Vector, Burlingame, Calif.). Specimens were analysed using a confocal laser scanning microscope (CLSM) (Leica TCS-NT, Lasertechnik, Heidelberg, Germany).
(§3) The presence of membrane testosterone receptors was equally identified using the testosterone analog testosterone3-(O-carboxymethyl)oxime-BSA-FITC, obtained from Sigma (St Louis, Mo.). This analog is not capable to penetrate the cells, because of a covalent attachment of the steroid with BSA. […] The membrane binding was equally verified by confocal laser microscopy, as shown in the right panel of FIG. 2.

[5] = test system: membrane testosterone receptors in LNCaP cells; assay: Flow cytometry detection of membrane binding on LNCaP cells; parameters: species or system human; settings: 10^-7 M
Experimental: LNCaP cells, cultured in serum free medium for 24 hrs, were detached from the culture flask by scraping and suspended in PBS at a density of 10^6 cells/ml. They were incubated at room temperature with 10^−7 M testosterone-BSA-FITC conjugate for different periods of time (1 min to 1 hour). A thousand-fold BSA-FITC was used to determine non-specific binding. Cells were analysed by flow cytometry using a Coulter Epics L-MCL apparatus (Beckman-Coulter Inc. Foullerton Calif., USA) in a sample size of 10,000 cells gated on the basis of forward and side scatter. Testosterone3-(O-carboxymethyl)oxime-BSA-FITC (named testosterone-BSA-FITC), testosterone3-(O-carboxymethyl)oxime-BSA (named testosterone-BSA), estradiol6-(O-carboxymethyl)oxime-BSA-FITC (named estradiol-BSA-FITC), progesterone3-(O-carboxymethyl)oxime-BSA-FITC (named progesterone-BSA-FITC) and BSA-FITC were obtained from Sigma (St Louis, Mo.).
as §3

[6] = test system: LNCaP tumors in nude mice; assay: In vivo effect in nude mice bearing implanted LNCaP tumors; settings: four weeks
Experimental: FIG. 9 presents the effect of testosterone-BSA administration in nude mice, bearing implanted tumors. Arrows show the injection times of testosterone-BSA (500 μl of a 5×10^−6 M solution) with or without addition of 10 mg/kg Taxol®.
Nude mice were injected in the back with 5×10^6 LNCaP cells diluted in Matrigel® (Sigma, St Louis, Mo.) in a total volume of 0.1 ml. After 4 weeks, macroscopical tumors were developed, and treatment was initiated, as follows: Drugs, diluted in PBS were injected intraperitoneally 3 times per week, in a total volume of 0.5 ml. Animals were divided in four groups: The first group received 5×10^−6 M BSA. The second group was injected with 5×10^−6 M testosterone-BSA conjugate. The third group was injected with 10 mg/ml Taxol®, while in the fourth group a combination of testosterone-BSA and Taxol® was introduced. Tumors were measured after four weeks of treatment. Tumors were excised, measured, weighted and send to a pathologist for further analysis.
As presented in FIG. 9, testosterone-BSA induced a time-dependent decrease in tumor mass by 53%. Addition of Taxol® produces a dramatic decrease of tumor weight by 77%. […] Therefore it is possible that the decrease if tumor mass could be greater for longer periods of treatment In addition, apoptosis was observed histologically in all tumors studied.

[7] = test system: membrane testosterone receptors in LNCaP cells; assay: Saturation binding of [3H]testosterone to LNCaP cell membranes; parameters: species or system human; settings: [3H]testosterone 2-50 nM, LNCaP membranes 2 mg/ml, overnight 4° C., non-specific binding with excess DHT; read-out: KD (Scatchard analysis)
Experimental: as §1, §2

[8] = test system: FAK→PI-3 kinase→Cdc42/Rac1→actin reorganization in LNCaP cells; assay: Signalling FAK, PI-3 kinase, Cdc42/Rac1, actin reorganization (immunoprecipitation, kinase assays, affinity precipitation); assay type: cell-based, human
Experimental: Testosterone-BSA or DHT-treated, as well as untreated (control) cells were washed three times with ice-cold PBS and suspended in cold lysis buffer containing 1% Nonidet P-40, 20 mM Tris pH 7.4 and 137 mM NaCl, supplemented with protease and phosphatase inhibitors. Cleared lysates were preadsorbed with protein A-Sepharose for 1 h at 4° C., centrifuged and the supernatants (equal amounts of protein) were subjected to immunoprecipitation using the indicated antibodies and the protein A-Sepharose beads.
The lipid kinase activity of PI-3 kinase was measured by the method of Auger et al with minor modifications. Protein A-Sepharose beads containing immunoprecipitated phosphotyrosine proteins were washed three times with Buffer A (20 mM Tris pH 7.4, 137 mM NaCl, 1 mM CaCl2, 1 mM MgCl2, 1% Nonidet P-40, 0.1 mM Na3VO4), three times with 5 mM LiCl in 0.1 M Tris (pH 7.4) and twice with TNE (10 mM Tris pH 7.4, 150 mM NaCl, 5 mM EDTA, 0.1 mM Na3VO4). […]
For immunoblot analysis, the cell lysates or the immunoprecipitates were suspended in Laemmli's sample buffer and separated by SDS-PAGE. […] Blots were developed using the ECL system and the band intensities were quantified by PC-based image analysis (Image Analysis Inc., Ontario, Canada). […]

With CC(=O)[C@H]1CC[C@H]2[C@@H]3CCC4=CC(=O)CC[C@]4(C)[C@H]3CC[C@]12C [progesterone] the “lower affinity in displacing radiolabelled testosterone (fold)” value ([1]; compared with DHT) was 10^2 fold.
For “testosterone3-(O-carboxymethyl)oxime-BSA [testosterone-BSA]”, the “potentiation of the action of Taxol®” value ([2]; testosterone-BSA 10^-7 M together with Taxol® 10^-8 M) was ~7%, the decrease of cells ([2]; testosterone-BSA alone 10^-7 M) was 50% and the “ratio of soluble (monomeric) to insoluble (polymerised) actin” value [3] was “significant decrease”. For the same compound, the “localisation of staining (internalization)” value [4] was “only membrane staining was found”, the “time at which association with membrane receptors was observed” value ([5]; flow cytometry) was 1 min and the “time at which association with membrane receptors was maximal” value ([5]; flow cytometry, unchanged after 30 min) was 10 min. For the same compound, the “membrane binding by flow cytometry” value ([5]; room temperature) was “specific membrane binding”, the “decrease in tumor mass” value ([6]; nude mice with LNCaP tumors, testosterone-BSA 5×10^-6 M i.p. 3 times per week) was 53% and the “decrease of tumor weight” value ([6]; nude mice with LNCaP tumors, testosterone-BSA 5×10^-6 M with addition of Taxol®, i.p. 3 times per week) was 77%. For the same compound, the tolerance of treatment ([6]; nude mice, 0.5 ml of 5×10^-6 M intraperitoneally 3 times per week) was “supported very well”.
C[C@]12CCC(=O)C[C@@H]1CC[C@@H]1[C@@H]2CC[C@]2(C)[C@@H](O)CC[C@@H]12 [DHT] was tested, and the “displacement of radiolabeled testosterone” value [1] was “produced a displacement of radiolabeled testosterone”.
In the case of C[C@]12CC[C@H]3[C@@H](CCC4=CC(=O)CC[C@@]43C)[C@@H]1CC[C@@H]2O [testosterone], the Kd [7] is reported as 10.9 nM and the “activation of signalling cascade FAK→PI-3 kinase→Cdc42/Rac1→actin reorganization” value [8] is reported as “less active than testosterone-BSA conjugate”.

From patent US7358379B2, “Steroid conjugates, preparation thereof and the use thereof” (Bionature E.A. Limited, priority 2002, dated 2008)
